Values joined by “and” are separate entries in the source; they are usually repeats but may differ in a detail not shown here. Equal entries are not always repeated. Where two headings read alike, the source gives them in different places.
Experiments:
[1] = system: voltage-gated Ca^2+ channels (VGCC); test: Calcium channel antagonist assay (K+-evoked cytosolic Ca2+, Fluo-4); type: cell-based
Protocol: The cytosolic Ca^2+ has been measured in SH-SY5Y cells. SH-SY5Y cells were maintained similarly to what was previously described^30. Free cytosolic Ca^2+ was measured using the fluorescent Ca^2+ indicator Fluo-4/AM (Fluo-4 acetomethoxyester). SH-SY5Y cells were seeded onto 96-well black plates at a density of 10^5 cells per well, achieving confluence after 48 h. Cells were washed with Krebs-Hepes solution (KH, in mM: 144 NaCl, 5.9 KCl, 1.2 MgCl2, 2 CaCl2, 11 D-glucose, 10 HEPES, pH 7.4). Cells were loaded with 10 µM Fluo-4/AM and 0.2% pluronic acid in KH and incubated for 45 min at 37 °C in the dark. Then, cells were washed twice with KH to remove the excess of probe. Tested compounds were incubated 10 min before K+ 70 mM was applied to evoke the increment of cytosolic Ca^2+. To normalize Fluo-4 signals, Triton X-100 (5%) and 1 M MnCl2 were applied to register both maximal and minimal fluorescence, respectively. The experiments were analyzed at excitation and emission wavelengths of 485 and 520 nm, respectively, and fluorescence was measured in a fluorescence microplate reader (FLUOstar Optima, BMG, Germany). Data were calculated as a percentage of Fmax - Fmin.
The blocking effect of the depolarization-induced Ca^2+ uptake was investigated in SH-SY5Y neuroblastoma cells stimulated with an extracellular concentration of K+ 70 mM, which induces the cell Ca^2+ levels elevation by opening voltage-gated Ca^2+ channels (VGCC), monitored with the Ca^2+-sensitive fluorescent dye Fluo-4. Nifedipine was used as positive standard.

[2] = Oxygen Radical Absorbance Capacity (ORAC-FL) assay; details: Trolox equivalents (µmol of Trolox equivalent/µmol of compound)
Protocol: The radical scavenging capacity of the TFAHs was determined by the ORAC-FL method using fluorescein as a fluorescent probe^33,34. (±)-6-Hydroxy-2,5,7,8-tetramethylchromane-2-carboxylic acid (Trolox), fluorescein (FL) and 2,2'-azobis(amidinopropane) dihydrochloride (AAPH) were purchased from Sigma-Aldrich. A Varioskan Flash plate reader with built-in injectors (Thermo Scientific) was used. The reaction was carried out at 37 °C in 75 mM phosphate buffer (pH= 7.4), and the final volume reaction mixture was 200 µL. The tested compounds and Trolox standard were dissolved in DMSO to 10 mM and further diluted in 75 mM phosphate buffer (pH= 7.4). The final concentrations were 0.1-1 µM for the tested compounds and 1-8 µM for Trolox standard. The blank was composed of 120 µL of FL, 60 µL of AAPH and 20 µL of phosphate buffer (pH=7.4) and was added in each assay.
The net AUC corresponding to a sample was calculated as follows: Net AUC = AUCantioxidant −AUCblank . [formula]
Regression equations were calculated by plotting the net AUC against the antioxidant concentration. The ORAC value was obtained by dividing the slope of the latter curve between the slope of the Trolox curve obtained in the same assay. Final ORAC values were expressed as µmol of Trolox equivalent/µmol of TFAH.

[3] = molecular target: T1, Human red-blood cell acetylcholinesterase (hAChE; EC 3.1.1.7) (Homo sapiens, UniProt P22303); test: biochemical; details: pH 7.4, 37 °C, mean ± SEM, read-out: AChE (IC50 µM)
T1 construct: Human red-blood cell acetylcholinesterase; purchased Sigma-Aldrich (Prague, Czech Republic); host or cells: human red blood cells
T1 sequence (P22303 32-617 isoform P22303-2 limits assumed): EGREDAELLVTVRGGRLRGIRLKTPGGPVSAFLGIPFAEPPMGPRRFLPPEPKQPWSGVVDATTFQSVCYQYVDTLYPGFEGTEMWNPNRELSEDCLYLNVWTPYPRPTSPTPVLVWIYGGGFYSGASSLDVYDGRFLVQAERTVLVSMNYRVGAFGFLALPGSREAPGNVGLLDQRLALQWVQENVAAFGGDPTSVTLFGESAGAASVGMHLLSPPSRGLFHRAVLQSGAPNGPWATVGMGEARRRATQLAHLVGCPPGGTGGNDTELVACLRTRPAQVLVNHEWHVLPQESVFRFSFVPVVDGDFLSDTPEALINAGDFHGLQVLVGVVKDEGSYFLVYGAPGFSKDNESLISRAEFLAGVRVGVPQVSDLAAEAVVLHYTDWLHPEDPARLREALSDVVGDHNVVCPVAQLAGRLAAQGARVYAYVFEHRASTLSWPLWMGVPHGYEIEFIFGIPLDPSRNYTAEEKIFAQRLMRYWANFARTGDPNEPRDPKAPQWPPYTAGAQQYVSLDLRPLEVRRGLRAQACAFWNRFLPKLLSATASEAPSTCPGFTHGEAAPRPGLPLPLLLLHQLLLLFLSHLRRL
Protocol: The AChE and BuChE inhibitory activity of the tested compounds was determined using a modified Ellman's method^31, 32.Human red-blood cell acetylcholinesterase (hAChE; EC 3.1.1.7), and human recombinant butyrylcholinesterase (hBuChE; EC 3.1.1.8), 5,5'-dithiobis(2-nitrobenzoic acid) (Ellman's reagent, DTNB), phosphate buffer (PB, pH 7.4), acetylthiocholine (ATC), and butyrylthiocholine (BTC), were purchased from Sigma-Aldrich (Prague, Czech Republic). Nunc polystyrene 96-well microplates with flat-bottom shape (ThermoFisher Scientific, USA) were used for the measurement and all the assay were carried out in 0.1 M KH2PO4/K2HPO4 buffer, pH 7.4. Enzyme solution was prepared at activity 2.0 units/mL in 2 mL aliquots. The assay mixture (100 µL) consisted of 40 µL of 0.1 M phosphate buffer (pH 7.4), 20 µL of 0.01 M DTNB, 10 µL of enzyme, and 20 µL of 0.01 M substrate (ATC iodide solution). Tested compounds were dissolved first in methanol (BIGI 23 in DMSO) and then further diluted by assay buffer to the final concentration. […] Enzyme with the inhibitor was preincubated for 5 min in the assay mixture and then the reaction was started by addition of 20 µL of substrate (ATC for AChE, BTC for BuChE). […] Each concentration was assayed in triplicate. The obtained data were used to compute the percentage inhibition (I; Equation 1): I = 1−(ΔAi)/(ΔA0) [%] [formula] ΔAi indicates the absorbance change provided by cholinesterase exposed to AChE inhibitors and ΔA0 indicates absorbance change caused by intact cholinesterase (phosphate buffer was used instead of AChE inhibitor solution).

[4] = molecular target: T2, human recombinant butyrylcholinesterase (hBuChE; EC 3.1.1.8) (Homo sapiens, UniProt P06276); test: Cholinesterase inhibition in vitro assay (modified Ellman's method), BuChE; type: biochemical; details: pH 7.4, 37 °C, mean ± SEM, read-out: BChE (IC50 µM)
T2 construct: purchased Sigma-Aldrich (Prague, Czech Republic)
T2 sequence (P06276 29-602): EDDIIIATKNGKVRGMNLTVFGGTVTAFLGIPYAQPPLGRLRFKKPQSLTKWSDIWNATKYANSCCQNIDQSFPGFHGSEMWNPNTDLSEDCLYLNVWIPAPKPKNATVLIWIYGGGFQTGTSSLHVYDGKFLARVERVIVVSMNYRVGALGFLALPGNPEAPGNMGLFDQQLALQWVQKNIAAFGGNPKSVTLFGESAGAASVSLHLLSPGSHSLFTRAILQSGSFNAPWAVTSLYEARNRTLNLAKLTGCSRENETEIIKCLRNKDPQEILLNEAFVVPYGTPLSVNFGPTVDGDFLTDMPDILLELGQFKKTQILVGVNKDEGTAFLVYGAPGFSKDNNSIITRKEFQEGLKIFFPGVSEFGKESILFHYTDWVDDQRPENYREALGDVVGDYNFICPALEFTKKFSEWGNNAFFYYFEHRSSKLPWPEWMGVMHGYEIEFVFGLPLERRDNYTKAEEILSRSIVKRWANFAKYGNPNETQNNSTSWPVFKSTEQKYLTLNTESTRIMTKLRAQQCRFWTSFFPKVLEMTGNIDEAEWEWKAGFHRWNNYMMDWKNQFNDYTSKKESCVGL
Protocol: The AChE and BuChE inhibitory activity of the tested compounds was determined using a modified Ellman's method^31, 32.Human red-blood cell acetylcholinesterase (hAChE; EC 3.1.1.7), and human recombinant butyrylcholinesterase (hBuChE; EC 3.1.1.8), 5,5'-dithiobis(2-nitrobenzoic acid) (Ellman's reagent, DTNB), phosphate buffer (PB, pH 7.4), acetylthiocholine (ATC), and butyrylthiocholine (BTC), were purchased from Sigma-Aldrich (Prague, Czech Republic). Nunc polystyrene 96-well microplates with flat-bottom shape (ThermoFisher Scientific, USA) were used for the measurement and all the assay were carried out in 0.1 M KH2PO4/K2HPO4 buffer, pH 7.4. Enzyme solution was prepared at activity 2.0 units/mL in 2 mL aliquots. The assay mixture (100 µL) consisted of 40 µL of 0.1 M phosphate buffer (pH 7.4), 20 µL of 0.01 M DTNB, 10 µL of enzyme, and 20 µL of 0.01 M substrate (ATC iodide solution). Tested compounds were dissolved first in methanol (BIGI 23 in DMSO) and then further diluted by assay buffer to the final concentration. […]. […] Enzyme with the inhibitor was preincubated for 5 min in the assay mixture and then the reaction was started by addition of 20 µL of substrate (ATC for AChE, BTC for BuChE). The enzyme activity was determined by measuring the increase in absorbance at 412 nm at 37 °C at 2 min intervals using a Multi-mode microplate reader Synergy 2 (Vermont, USA). Each concentration was assayed in triplicate. The obtained data were used to compute the percentage inhibition (I; Equation 1): I = 1−(ΔAi)/(ΔA0) [%] [formula] ΔAi indicates the absorbance change provided by cholinesterase exposed to AChE inhibitors and ΔA0 indicates absorbance change caused by intact cholinesterase (phosphate buffer was used instead of AChE inhibitor solution). […] Calculations were performed using software Microsoft Excel (Redmont, WA, USA) and GraphPad Prism version 5.02 for Windows, GraphPad Software, San Diego, CA, USA.

[5] = SH-SY5Y cells, K+ 70 mM, mean ± SEM, read-out: IC50 (µM) Calcium channels blockade

Compound | IC50 ([1]; read-out: IC50 (µM) Calcium channels blockade, SH-SY5Y cells, K+ 70 mM, mean ± SEM) [µM] | IC50 [1, 5] [µM] | ORAC [2] | IC50 [3] [µM] | IC50 [4] [µM]
COC(=O)C1=C(C)NC(C)=C(C(=O)OC)C1c1ccccc1[N+](=O)[O-] [Nifedipine, reference compound] | 6.2 ± 0.2 |  |  |  | 
CCOC(=O)C1=C(C)N(CCCC2CCN(Cc3ccccc3)CC2)C(=O)NC1c1coc2c(Cl)cc(Cl)cc2c1=O (stereo not shown) [BIGI-3m, ethyl 1-(3-(1-benzylpiperidin-4-yl)propyl)-4-(6,8-dichloro-4-oxo-4H-chromen-3-yl)-6-methyl-2-oxo-1,2,3,4-tetrahydropyrimidine-5-carboxylate] |  | 5 ± 2 | 3.29± 0.10 TE | 0.34 ± 0.02 | 14.4 ± 1.2
CCOC(=O)C1=C(C)N(CCCC2CCN(Cc3ccccc3)CC2)C(=O)NC1c1coc2ccccc2c1=O (stereo not shown) [BIGI-3i, ethyl 1-(3-(1-benzylpiperidin-4-yl)propyl)-6-methyl-2-oxo-4-(4-oxo-4H-chromen-3-yl)-1,2,3,4-tetrahydropyrimidine-5-carboxylate] |  | 8 ± 1 | 3.09 ± 0.07 TE | 0.15 | 4.29 ± 0.09
CCOC(=O)C1=C(C)N(CC2CCN(Cc3ccccc3)CC2)C(=O)NC1c1coc2cc(CC)ccc2c1=O (stereo not shown) [BIGI-3c, ethyl 1-((1-benzylpiperidin-4-yl)methyl)-4-(7-ethyl-4-oxo-4H-chromen-3-yl)-6-methyl-2-oxo-1,2,3,4-tetrahydropyrimidine-5-carboxylate] |  | 3 ± 0.9 | 3.51 ± 0.09 TE | 6.08 ± 0.38 | 36.1 ± 3.1
CCOC(=O)C1=C(C)N(CCC2CCN(Cc3ccccc3)CC2)C(=O)NC1c1coc2ccccc2c1=O (stereo not shown) [BIGI-3d, ethyl 1-(2-(1-benzylpiperidin-4-yl)ethyl)-6-methyl-2-oxo-4-(4-oxo-4H-chromen-3-yl)-1,2,3,4-tetrahydropyrimidine-5-carboxylate] |  | 9 ± 2 | 2.53 ± 0.17 TE | 0.23 ± 0.01 | 6.58 ± 0.34
CCOC(=O)C1=C(C)N(CCCC2CCN(Cc3ccccc3)CC2)C(=O)NC1c1coc2cc(C)c(Cl)cc2c1=O (stereo not shown) [BIGI-3l, ethyl 1-(3-(1-benzylpiperidin-4-yl)propyl)-4-(6-chloro-7-methyl-4-oxo-4H-chromen-3-yl)-6-methyl-2-oxo-1,2,3,4-tetrahydropyrimidine-5-carboxylate] |  | 3.2 ± 0.2 | 1.68 ± 0.18 TE | 0.17 ± 0.01 | 6.26 ± 0.31
CCOC(=O)C1=C(C)N(CC2CCN(Cc3ccccc3)CC2)C(=O)NC1c1coc2ccccc2c1=O (stereo not shown) [BIGI-3a, ethyl 1-((1-benzylpiperidin-4-yl)methyl)-6-methyl-2-oxo-4-(4-oxo-4H-chromen-3-yl)-1,2,3,4-tetrahydropyrimidine-5-carboxylate] |  | 14 ± 3 | 3.29 ± 0.07 TE |  | 14.8 ± 0.7
CCOC(=O)C1=C(C)N(CCCC2CCN(Cc3ccccc3)CC2)C(=O)NC1c1coc2ccc(Br)cc2c1=O (stereo not shown) [BIGI-3j, ethyl 1-(3-(1-benzylpiperidin-4-yl)propyl)-4-(6-bromo-4-oxo-4H-chromen-3-yl)-6-methyl-2-oxo-1,2,3,4-tetrahydropyrimidine-5-carboxylate] |  | 3.8 ± 0.1 | 3.24 ± 0.02 TE | 0.18 ± 0.01 | 6.51 ± 0.45
CCOC(=O)C1=C(C)N(CCCC2CCN(Cc3ccccc3)CC2)C(=O)NC1c1coc2ccc(C(C)C)cc2c1=O (stereo not shown) [BIGI-3n, ethyl 1-(3-(1-benzylpiperidin-4-yl)propyl)-4-(6-isopropyl-4-oxo-4H-chromen-3-yl)-6-methyl-2-oxo-1,2,3,4-tetrahydropyrimidine-5-carboxylate] |  | 1.7 ± 0.4 | 2.45± 0.04 TE | 0.58 ± 0.02 | 4.35 ± 0.23
CCOC(=O)C1=C(C)N(CCC2CCN(Cc3ccccc3)CC2)C(=O)NC1c1coc2cc(C)c(Cl)cc2c1=O (stereo not shown) [BIGI-3g, ethyl 1-(2-(1-benzylpiperidin-4-yl)ethyl)-4-(6-chloro-7-methyl-4-oxo-4H-chromen-3-yl)-6-methyl-2-oxo-1,2,3,4-tetrahydropyrimidine-5-carboxylate] |  | 1.7 ± 0.6 | 2.56 ± 0.13 TE | 0.29 ± 0.01 | 15.7 ± 0.9
CCOC(=O)C1=C(C)N(CCC2CCN(Cc3ccccc3)CC2)C(=O)NC1c1coc2cc(CC)ccc2c1=O (stereo not shown) [BIGI-3f, ethyl 1-(2-(1-benzylpiperidin-4-yl)ethyl)-4-(7-ethyl-4-oxo-4H-chromen-3-yl)-6-methyl-2-oxo-1,2,3,4-tetrahydropyrimidine-5-carboxylate] |  | 2.2 ± 0.6 | 2.20 ± 0.05 TE | 0.3 ± 0.01 | 5.96 ± 0.22
CCOC(=O)C1=C(C)N(CC2CCN(Cc3ccccc3)CC2)C(=O)NC1c1coc2ccc(Br)cc2c1=O (stereo not shown) [BIGI-3b, ethyl 1-((1-benzylpiperidin-4-yl)methyl)-4-(6-bromo-4-oxo-4H-chromen-3-yl)-6-methyl-2-oxo-1,2,3,4-tetrahydropyrimidine-5-carboxylate] |  | 6 ± 3 | 2.06 ± 0.17 TE |  | 
COc1cc(/C=C/C(=O)O)ccc1O [Ferulic acid, reference compound] |  |  | 3.7 TE and 3.7 ± 0.2 TE |  | 
